Experimental data: PMC11671014 (PLOS Pathogens, 2024)
Values joined by “and” are separate entries in the source; they are usually repeats but may differ in a detail not shown here. Equal values may be shown once. “Also recorded” adds a separate entry of the source. Read-outs that look alike come from different tables or passages of the source.

Tests used:
[1] = biological target: Atg7 (autophagy-related protein-7) (Homo sapiens, UniProt O95352); experiment: ATG7 E1-E2 transthiolation HTRF assay (GABARAP); format: biochemical; conditions: read-out: ATG7 IC50 HTRF RH-GABARAP
Atg7 (autophagy-related protein-7), sequence (O95352 whole entry): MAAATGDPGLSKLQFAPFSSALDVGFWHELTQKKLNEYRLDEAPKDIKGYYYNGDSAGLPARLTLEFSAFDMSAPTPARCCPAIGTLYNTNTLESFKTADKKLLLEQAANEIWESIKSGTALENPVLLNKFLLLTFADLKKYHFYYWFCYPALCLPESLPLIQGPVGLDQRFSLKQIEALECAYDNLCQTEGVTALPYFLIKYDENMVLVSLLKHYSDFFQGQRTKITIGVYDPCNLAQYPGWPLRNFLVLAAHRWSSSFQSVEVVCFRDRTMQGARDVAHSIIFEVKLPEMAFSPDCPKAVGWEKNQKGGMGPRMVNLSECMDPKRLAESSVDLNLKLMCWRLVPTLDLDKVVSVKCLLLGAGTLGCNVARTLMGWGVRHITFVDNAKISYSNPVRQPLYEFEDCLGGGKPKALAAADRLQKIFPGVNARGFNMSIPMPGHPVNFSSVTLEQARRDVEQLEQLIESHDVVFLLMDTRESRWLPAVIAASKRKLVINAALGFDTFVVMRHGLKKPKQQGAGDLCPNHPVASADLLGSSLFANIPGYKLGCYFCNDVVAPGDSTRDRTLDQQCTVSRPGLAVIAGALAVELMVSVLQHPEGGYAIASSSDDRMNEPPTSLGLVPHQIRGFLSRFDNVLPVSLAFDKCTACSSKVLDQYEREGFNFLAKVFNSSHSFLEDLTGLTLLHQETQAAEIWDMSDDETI
Excerpt: An Homogeneous Time-Resolved Fluorescence (HTRF) enzyme assay was employed to evaluate compound activity against ATG7 as previously described. In this assay, a Flag-tagged ATG8 homolog (GABA type A receptor-associated protein; GABARAP) is activated by ATG7 and then transthiolated to a GST-tagged E2 (ATG3). The product of the enzyme reaction, Flag-GABARAP-ATG3-GST, is quantified by measuring FRET between Europium-Cryptate labelled monoclonal anti-Flag M2 (FLAG M2-Eu cryptate; Revvity, Cat# 61FG2KLB) and […] (Anti-GST IgG conjugated to SureLight-Allophycocyanin) (Revvity, Cat# AD0059G)). The activation and transthiolation of ubiquitin by UAE, activation and transthiolation of NEDD8 by NAE and activation and transthiolation of SUMO by SAE were all assayed in a similar fashion with appropriately tagged ubiquitin-like proteins and E2 conjugating enzymes as described.

[2] = test system: P. falciparum Brazilian field isolates; experiment: Ex vivo drug susceptibility of Brazilian field isolates (P. falciparum); format: cell-based; conditions: Plasmodium falciparum
Protocol: (§1) Compounds were assayed on ten P. vivax isolates and seven P. falciparum Brazilian isolates collected from mono-infected patients, who had signed a written informed consent form to participate in the study, using previously described methods. The initial parasitemia ranged from 2,100–8,000 parasites/μL for P. vivax and 3,500–9,000 parasites/μL for P. falciparum isolates. Artesunate and chloroquine were assayed in parallel as standard compounds. The analyses included only the isolates that were incubated for ≥ 40 h with the compounds.

[3] = test system: P. vivax Brazilian field isolates; experiment: Ex vivo drug susceptibility of Brazilian field isolates (P. vivax); format: cell-based; conditions: Plasmodium vivax
Protocol: as §1

[4] = test system: P. falciparum (strain 3D7A); experiment: Parasite Reduction Rate (PRR) estimation; format: cell-based, Plasmodium falciparum; conditions: 10 x IC50
Protocol: PRR was assessed using a standardized method. P. falciparum (strain 3D7A, MRA-151), contributed by David Walliker, was obtained through BEI Resources, NIAID, NIH. Cultures of parasites (~90% ring stage) were treated with compounds for 120 h, with daily renewal. Samples of parasites were taken at 0, 24, 48, 72, 96 and 120 h. Compounds were washed out and four independent 3-fold serial dilutions were established in 96-well plates, with fresh RBCs and culture medium. After 18 days, and again at 22 days, samples were taken to examine growth using SYBR Green I in an EnVision Multilabel Plate Reader (Perkin Elmer) and analysed using Excel and Grafit 5.0 software. The human biological samples were sourced ethically, and their research use was in accord with the terms of the informed consents under an IRB/EC approved protocol.

[5] = Blood exposure in the P. falciparum infected SCID mouse model; format: in vivo, NODscidIL2Rγ^null mice engrafted with human RBCs; conditions: for Cmax / Tmax / AUC(0-t): female, mouse, whole blood, po
Protocol: (§2) The model using P. falciparum Pf3D7^0087/N9 in NODscidIL2Rγ^null mice engrafted with human RBCs was adapted from a previously described procedure. Female NODscidIL2Rγ^null mice were purchased from Charles River (Germany). Briefly, two engrafted mice/dosing group (females, 20–22 g) were infected intravenously with 2 x 10^7 P. falciparum (Pf3D7^0087/N9) on day 0. The antimalarial efficacy was assessed following administration (p.o.) of 100 or 200 mg/kg of compound or of 4 daily doses of 50 mg/kg, initiated on day 3 post-infection. The effect on blood parasitemia was measured by microscopic analysis of Giemsa-stained blood smears (on days 3, 4, 5, 6 and 7 post-infection). Mice were euthanized on day 7. Animal were monitored for symptoms of acute toxicity, including decreased activity, sunken flanks, ataxia and blood in faeces.
On day 3, blood samples (20 μL) were obtained at time points up to 24 h after the first administration. Protein was precipitated with acetonitrile and the remaining compound was assessed by LC-MS/MS in the selected reaction monitoring mode using HESI ionization in positive ion mode.

[6] = test system: P. falciparum (Pf3D7^0087/N9); experiment: Therapeutic efficacy and tolerability in the SCID mouse P. falciparum model; format: in vivo, Plasmodium falciparum in NODscidIL2Rγ^null mice
Protocol: as §2

[7] = test system: stage V NF54 strain male and female gametocytes; set-up: method as in ref [1] Xie et al., Science 2022; conditions: 48 h, ref [1] Xie et al., Science 2022, cited from earlier work
[8] = 1 x 100 mg/kg p.o., mice M1, M2
[9] = 1 x 200 mg/kg p.o., mice M3, M4
[10] = 4 days x 50 mg/kg p.o., after first dose, blood
[11] = 4 days x 50 mg/kg p.o., mice M1, M2

CC(C)c1nn([C@@H]2O[C@H](COS(N)(=O)=O)[C@@H](O)[C@H]2O)c2ncnc(N)c12 [ML471, ((2R,3S,4R,5R)-5-(4-amino-3-isopropyl-1H-pyrazolo[3,4-d]pyrimidin-1-yl)-3,4-dihydroxytetrahydrofuran-2-yl)methyl sulfamate]
IC50 [1]: 22 ± 9 nM | EC50 ([2]; range over n = 7 isolates, read-out: EC50 range, P. falciparum Brazilian field isolates): 2.5 to 4.9 nM | EC50 ([2]; read-out: Median EC50, P. falciparum Brazilian field isolates): 4.2 nM | EC50 ([3]; range over n = 10 isolates, read-out: EC50 range, P. vivax Brazilian field isolates): 1.2 to 62 nM | EC50 ([3]; read-out: Median EC50, P. vivax Brazilian field isolates): 8 nM | Lag phase [4]: 0 h | Log PRR [4]: 4.1 | PCT99.9% [4]: 32 h | Slope [4]: -0.09 | AUC0-120h/dose (mean) ([5]; 1 x 100 mg/kg p.o., blood): 2,500 (h*ng/mL)/(mg/kg) | Cmax/dose (mean) ([5]; 1 x 100 mg/kg p.o., blood): 33.5 (ng/mL)/(mg/kg) | AUC0-120h (individual mice) [5, 8]: 260,000 h*ng/mL | AUC0-120h/dose (individual mice) [5, 8]: 2,390 (h*ng/mL)/(mg/kg) and 2,600 (h*ng/mL)/(mg/kg) | Cmax (individual mice) [5, 8]: 3,600 ng/mL | Cmax/dose (individual mice) [5, 8]: 31 (ng/mL)/(mg/kg) and 36 (ng/mL)/(mg/kg) | AUC0-120h/dose (mean) ([5]; 1 x 200 mg/kg p.o., blood): 1,070 (h*ng/mL)/(mg/kg) | Cmax/dose (mean) ([5]; 1 x 200 mg/kg p.o., blood): 18.8 (ng/mL)/(mg/kg) | AUC0-120h (individual mice) [5, 9]: 259,000 h*ng/mL | AUC0-120h/dose (individual mice) [5, 9]: 855 (h*ng/mL)/(mg/kg) and 1,290 (h*ng/mL)/(mg/kg) | Cmax (individual mice) [5, 9]: 4,180 ng/mL | Cmax/dose (individual mice) [5, 9]: 16.7 (ng/mL)/(mg/kg) and 20.9 (ng/mL)/(mg/kg) | AUC0-24h/dose (mean) [5, 10]: 422 (h*ng/mL)/(mg/kg) | Cmax/dose (mean) [5, 10]: 19.3 (ng/mL)/(mg/kg) | AUC0-24h (individual mice) [5, 11]: 22,572 h*ng/mL | AUC0-24h/dose (individual mice) [5, 11]: 451 (h*ng/mL)/(mg/kg) and 392 (h*ng/mL)/(mg/kg) | Cmax (individual mice) [5, 11]: 1,040 ng/mL | Cmax/dose (individual mice) [5, 11]: 17.8 (ng/mL)/(mg/kg) and 20.8 (ng/mL)/(mg/kg) | Tmax (individual mice) [5, 11]: 24 h | Cmax ([5]; NODscidIL2Rγ^null, 50 mg/kg, 4 days x 50 mg/kg p.o., after first dose, blood, read-out: Cmax (mean)): 964 ng/mL | Tmax ([5]; NODscidIL2Rγ^null, 50 mg/kg, 4 days x 50 mg/kg p.o., after first dose, blood, read-out: Tmax (mean)): 15 h | AUC(0-t) ([5]; NODscidIL2Rγ^null, 50 mg/kg, 4 days x 50 mg/kg p.o., mice M1, M2, read-out: AUC0-24h (individual mice)): 19.6 µg·h/mL | Cmax ([5]; NODscidIL2Rγ^null, 50 mg/kg, 4 days x 50 mg/kg p.o., mice M1, M2, read-out: Cmax (individual mice)): 888 ng/mL | Cmax ([5]; NODscidIL2Rγ^null, 100 mg/kg, 1 x 100 mg/kg p.o., blood, read-out: Cmax (mean)): 3350 ng/mL | Tmax ([5]; NODscidIL2Rγ^null, 100 mg/kg, 1 x 100 mg/kg p.o., blood, read-out: Tmax (mean)): 5 h | AUC(0-t) ([5]; NODscidIL2Rγ^null, 100 mg/kg, 1 x 100 mg/kg p.o., mice M1, M2, read-out: AUC0-120h (individual mice)): 239 µg·h/mL | Cmax ([5]; NODscidIL2Rγ^null, 100 mg/kg, 1 x 100 mg/kg p.o., mice M1, M2, read-out: Cmax (individual mice)): 3100 ng/mL | Tmax ([5]; NODscidIL2Rγ^null, 100 mg/kg, 1 x 100 mg/kg p.o., mice M1, M2, read-out: Tmax (individual mice)): 4 h | Cmax ([5]; NODscidIL2Rγ^null, 200 mg/kg, 1 x 200 mg/kg p.o., blood, read-out: Cmax (mean)): 3760 ng/mL | Tmax ([5]; NODscidIL2Rγ^null, 200 mg/kg, 1 x 200 mg/kg p.o., blood, read-out: Tmax (mean)): 4 h | AUC(0-t) ([5]; NODscidIL2Rγ^null, 200 mg/kg, 1 x 200 mg/kg p.o., mice M3, M4, read-out: AUC0-120h (individual mice)): 171 µg·h/mL | Cmax ([5]; NODscidIL2Rγ^null, 200 mg/kg, 1 x 200 mg/kg p.o., mice M3, M4, read-out: Cmax (individual mice)): 3340 ng/mL | Tmax ([5]; NODscidIL2Rγ^null, 200 mg/kg, 1 x 200 mg/kg p.o., mice M3, M4, read-out: Tmax (individual mice)): 4 h | AUC(0-t) ([5]; NODscidIL2Rγnull engrafted with human RBCs, 50 mg/kg, 4 x 50 mg/kg p.o., at 24 h after the first dose, read-out: AUC0-24h): 54 µM·h | AUC(0-t) ([5]; NODscidIL2Rγnull engrafted with human RBCs, 50 mg/kg, 4 days x 50 mg/kg p.o., after first dose, blood, read-out: AUC0-24h (mean)): 21.1 µg·h/mL | AUC(0-t) ([5]; NODscidIL2Rγnull engrafted with human RBCs, 100 mg/kg, 1 x 100 mg/kg p.o., blood, read-out: AUC0-120h (mean)): 250 µg·h/mL | AUC(0-t) ([5]; NODscidIL2Rγnull engrafted with human RBCs, 100 mg/kg, single dose 100 mg/kg p.o., read-out: AUC0-120h): 640 µM·h | AUC(0-t) ([5]; NODscidIL2Rγnull engrafted with human RBCs, 200 mg/kg, 1 x 200 mg/kg p.o., blood, read-out: AUC0-120h (mean)): 215 µg·h/mL | AUC(0-t) ([5]; NODscidIL2Rγnull engrafted with human RBCs, 200 mg/kg, single dose 200 mg/kg p.o., read-out: AUC0-120h): 550 µM·h | effect on 3D7 parasitemia, 4 x daily doses ([6]; 4 x daily doses of 50 mg/kg p.o. from day 3 post-infection): reduced the 3D7 parasitemia to baseline | tolerability / toxicity in SCID mice (in words) ([6]; 100 or 200 mg/kg p.o. single dose, 4 x 50 mg/kg p.o.): well tolerated; also recorded: no evidence of toxicity | effect on 3D7 parasitemia, single dose regimen ([6]; either 100 or 200 mg/kg p.o. on day 3 post-infection): reduction of 3D7 parasitemia to baseline

Nc1ncnc2c1c(OC(F)F)nn2[C@@H]1O[C@H](COS(N)(=O)=O)[C@@H](O)[C@H]1O [ML901]
IC50 ([7]; female, read-out: Dual gamete formation assay (female) IC50(48h)): 4700 nM | IC50 ([7]; male, read-out: Dual gamete formation assay (male) IC50(48h)): 130 ± 10 nM
